What all share (test): relative viability (nuclei count vs DMSO), 5 days (fraction); higher = more cells survive
Compound in the assay “Bleomycin + Crizotinib”: CC1=C(N=C(N=C1N)[C@H](CC(=O)N)NC[C@@H](C(=O)N)N)C(=O)N[C@@H]([C@H](C2=CN=CN2)OC3C(C(C(C(O3)CO)O)O)OC4C(C(C(C(O4)CO)O)OC(=O)N)O)C(=O)N[C@H](C)[C@H]([C@H](C)C(=O)N[C@@H]([C@@H](C)O)C(=O)NCCC5=NC(=CS5)C6=NC(=CS6)C(=O)NCCC[S+](C)C)O [Bleomycin] + C[C@@H](Oc1cc(-c2cnn(C3CCNCC3)c2)cnc1N)c1c(Cl)ccc(F)c1Cl [Crizotinib] (partner 1 µM)
The settings on record: main component drawn. The essentials:
(§1)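 After 5 days of treatment, lung cancer cells in 1536-well plates were fixed and stained in a single step (final 0.05% Triton X-100, 1% formaldehyde, 1 ug/ml Hoechst) and their nuclei counted on 4× images. Treatment had been applied by pin tool the day after seeding as one drug alone or as a fixed anchor-drug dose with five library-drug doses (not always all listed) in √10 steps. Relative viability is the nuclei count of treated wells divided by that of vehicle wells, and values are medians of duplicate plates.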

Compound in the assay “Bleomycin + Pemetrexed”: CC1=C(N=C(N=C1N)[C@H](CC(=O)N)NC[C@@H](C(=O)N)N)C(=O)N[C@@H]([C@H](C2=CN=CN2)OC3C(C(C(C(O3)CO)O)O)OC4C(C(C(C(O4)CO)O)OC(=O)N)O)C(=O)N[C@H](C)[C@H]([C@H](C)C(=O)N[C@@H]([C@@H](C)O)C(=O)NCCC5=NC(=CS5)C6=NC(=CS6)C(=O)NCCC[S+](C)C)O [Bleomycin] + Nc1nc2[nH]cc(CCc3ccc(C(=O)N[C@@H](CCC(=O)O)C(=O)O)cc3)c2c(=O)[nH]1 [Pemetrexed] (partner 0.2 µM)
The settings on record: main component drawn. The method, boiled down: as §1

Compound in the assay “Etoposide + Vorinostat”: COc1cc([C@@H]2c3cc4c(cc3[C@@H](O[C@@H]3O[C@@H]5CO[C@@H](C)O[C@H]5[C@H](O)[C@H]3O)[C@H]3COC(=O)[C@H]23)OCO4)cc(OC)c1O [Etoposide] + O=C(CCCCCCC(=O)Nc1ccccc1)NO [Vorinostat] (partner 1 µM)
The method, boiled down:
as §1

Compound in the assay “Etoposide + Alpelisib”: COc1cc([C@@H]2c3cc4c(cc3[C@@H](O[C@@H]3O[C@@H]5CO[C@@H](C)O[C@H]5[C@H](O)[C@H]3O)[C@H]3COC(=O)[C@H]23)OCO4)cc(OC)c1O [Etoposide] + Cc1nc(NC(=O)N2CCC[C@H]2C(N)=O)sc1-c1ccnc(C(C)(C)C(F)(F)F)c1 [Alpelisib] (partner 2 µM)
The method, boiled down:
as §1

Regarding UMC-11, the relative viability with Bleomycin + Crizotinib (first compound 0.01 µM) worked out at 0.528; with Bleomycin + Crizotinib (first compound 0.03162 µM), 0.571; with Bleomycin + Crizotinib (first compound 0.1 µM), 0.419; with Bleomycin + Crizotinib (first compound 0.3162 µM), 0.326; with Bleomycin + Crizotinib (first compound 1 µM), 0.252; in the assay with Bleomycin + Pemetrexed (first compound 0.01 µM), 0.74. Also, the relative viability in the assay with Bleomycin + Pemetrexed (first compound 0.03162 µM) turned out to be 0.756; with Bleomycin + Pemetrexed (first compound 0.1 µM) it was 0.74; with Bleomycin + Pemetrexed (first compound 0.3162 µM), 0.598; with Bleomycin + Pemetrexed (first compound 1 µM), 0.414; with Etoposide + Vorinostat (first compound 0.01 µM), 0.373; with Etoposide + Vorinostat (first compound 0.03162 µM), 0.376. Also, the relative viability is 0.323 in the assay with Etoposide + Vorinostat (first compound 0.1 µM); 0.228 with Etoposide + Vorinostat (first compound 0.3162 µM); 0.199 with Etoposide + Vorinostat (first compound 1 µM); 0.943 with Etoposide + Alpelisib (first compound 0.01 µM); 1.11 with Etoposide + Alpelisib (first compound 0.03162 µM); 0.352 with Etoposide + Alpelisib (first compound 0.3162 µM). Moreover, the relative viability in the assay with Etoposide + Alpelisib (first compound 1 µM) came to 0.222.

The values are drawn from the supplement of paper PMC10307832.
